We go through 82 compounds from PubChem BioAssay AID463206 (Broad Institute, 2010).

The source made the active and inactive calls.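 The calls were made as follows: active = caspase luminescence falls with dose and the half-maximal concentration AC50 from the fitted curve is at or below a set limit; inconclusive = flat fit at 30 to 70% signal loss, or invalid fit; inactive = AC50 above the limit, or signal rises instead.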 Bounds are passed on as bounds.

This assay deals with INS-1E cytokine-induced caspase-3/7, Caspase-Glo luminescence, 48 h. As to the kind of experiment: suppression of cytokine-driven beta-cell apoptosis – INS-1E rat cells, luminescence, orthogonal assay for beta-cell apoptosis protection project, dose response (AID 463206).

Consider `Cc1cc(C(C)(C)CC(C)(C)C)ccc1OCCOCC[N+](C)(C)Cc1ccccc1`, for which the AC50 (in general, the concentration at which the activity in the assay is half-maximal) was > 26 µM (inactive).
As for `CCCCCCCCCCn1ccc(=N)cc1`, the AC50 is > 26 µM (inactive).
For `c1ccc(CCNc2nc(-c3ccccn3)nc3ccccc23)cc1` the value was > 26 µM (inactive).
Consider `Cc1ccc(CSC(Nc2ccc(F)cc2)=C(C#N)C#N)cc1`, for which the AC50 was > 26 µM (inactive).
Next, `Cc1ccc(-c2cnc(NC(=O)CCC(=O)N(C)Cc3ccccc3)n2C)cc1`: > 26 µM (inactive).
For `CCN(c1ccccc1)S(=O)(=O)c1ccc(NC(=O)c2nc(S(C)(=O)=O)ncc2Cl)cc1` the value was > 26 µM (inactive).
Next, `O=C(Nc1ccc(C(=O)Nc2ccccc2Cl)cc1)c1cccnc1`: > 26 µM (inactive); `COc1ccc(/C=N/Nc2cc(C)nc(-n3nc(C)cc3C)n2)c(OC)c1`: > 26 µM (inactive); `CCc1ccc(-c2nn(-c3ccccc3)cc2CSC(=N)N)cc1`: > 26 µM (inactive).
Regarding `Cc1ccc(C)c(NC(=S)NC(NC(=O)Cc2cccc3ccccc23)C(Cl)(Cl)Cl)c1` (configuration not stated), the AC50 is > 26 µM (inactive).
Next, `Cc1ccc(C(=O)N/C(=C\c2ccc(-c3ccc(Cl)cc3)o2)C(=O)NCCCN(C)C)cc1`: 11.9 µM.
For `COc1ccc(NS(=O)(=O)c2ccc(N3CCOCC3)c(N)c2)cc1` the value was > 26 µM (inactive); for `CCCCCCCNC1=CC(=O)CC(c2ccccc2)C1` (configuration not stated), > 12 µM (inactive).
For `COc1ccc(NC(=O)N(C)C[C@H]2Oc3c(NS(=O)(=O)c4ccc(F)cc4)cccc3C(=O)N([C@H](C)CO)C[C@@H]2C)cc1` the value was > 26 µM (inactive); for `Cn1c(SCC(=O)N/N=C/c2ccc([N+](=O)[O-])s2)nnc1-c1ccc(Cl)cc1`, > 26 µM (inactive); for `CCCc1sc(N/N=C/c2ccccn2)nc1-c1ccc(F)cc1`, > 26 µM (inactive).
Take `COC(=O)c1c(C)oc2ccc(N(C(=O)c3ccncc3)S(=O)(=O)c3ccc4ccccc4c3)cc12`: the AC50 is > 26 µM (inactive).
Consider `CCN(CC)CCn1c2ccccc2c2cnc(N)c(C#N)c21`, for which the concentration at half-maximal activity (AC50) was 5.57 µM.
For `COC(=O)c1cccc(NC(=O)Nc2ccc(Cl)c(Cl)c2)c1` the value was > 26 µM (inactive); for `O=C(CCCN1C(=O)/C(=C/c2ccccc2)SC1=S)NCCCn1ccnc1`, > 26 µM (inactive).
In the case of `CCCC[n+]1ccn(C2=C([O-])c3ccccc3C(=O)/C2=N\S(=O)(=O)c2ccc(Br)cc2)c1`, the AC50 is > 26 µM (inactive).
With `Cc1ccccc1Oc1cc(NC(=O)CCCn2nc(C)c([N+](=O)[O-])c2C)cc([N+](=O)[O-])c1`, the AC50 was > 26 µM (inactive).
For `Cc1ccc(NC(=S)N/N=C/c2ccc([N+](=O)[O-])s2)cc1` the value was > 26 µM (inactive); for `CC(=O)c1c(C)[nH]c(C(=O)OCC(=O)Nc2ccc(C)cc2[N+](=O)[O-])c1C`, > 26 µM (inactive); for `CCCCSc1nc2sc3c(c2c(=O)n1-c1ccc(C)cc1)CCN(C)C3`, > 26 µM (inactive).
For `O=C(CNC(=O)c1ccccc1)N/N=C/c1cc(Br)ccc1O` the value was > 26 µM (inactive).
Next, `COc1cccc(/C=N/NC(=O)c2c(C)nc3ccc(Cl)cn23)c1O`: > 26 µM (inactive).
In the case of `COc1cc(CSc2nnnn2-c2ccc(C)cc2)cc(OC)c1OC`, the AC50 is > 26 µM (inactive).
For `CCOC(=O)N1CCN(S(=O)(=O)c2ccc(C(=O)NNc3nc4ccc(Cl)cc4s3)cc2)CC1` the value was > 26 µM (inactive).
For the compound `C=C[C@H](CC(C)C)N(Cc1ccccc1)S(=O)(=O)N(Cc1ccc(OC)cc1)[C@H](C=C)CC(C)C`, the AC50 was > 26 µM (inactive).
For `c1ccc(Nc2nc(NCc3ccco3)c3ccccc3n2)cc1` the value was 23.7 µM; for `O=C(Nc1ncnc2c1C(c1ccccc1)c1c(ccc3ccccc13)O2)c1ccccc1` (configuration not stated), > 26 µM (inactive); for `CCOc1ccc(-n2c(-c3ccccc3)c[n+]3c2CCC3)cc1`, > 26 µM (inactive).
In the case of `Cc1cc(N/N=C/c2ccc(O)cc2O)nc(-c2ccccc2O)n1`, the AC50 is > 26 µM (inactive).
Regarding `Nc1nc2ccccc2n1/N=C/c1ccc([N+](=O)[O-])s1`, the AC50 is > 26 µM (inactive).
As to `CCC(C)(C)c1ccc(OCCCC[n+]2ccccc2)c(C(C)(C)CC)c1`, the AC50 is > 26 µM (inactive).
Next, `O=C(N/N=C/c1cc(Cl)ccc1O)c1cccnc1`: > 26 µM (inactive).
Next, `COC1=CC(=O)[C@]2(C=C1OC)OC[C@@H]1Oc3c(ccc4c3C=CC(C)(C)O4)C(=O)[C@@H]12`: > 26 µM (inactive).
With `O=C(N=Nc1c(O)n(Cc2ccccc2)c2ccccc12)c1cc2ccccc2cc1O`, the AC50 is > 26 µM (inactive).
Take `O=C(COC(=O)Cn1cnc2ccccc2c1=O)Nc1ccc2c(c1)OCO2`: the AC50 is > 26 µM (inactive).
As to `O=C(N/N=C/c1cc([N+](=O)[O-])ccc1O)c1cccc(NC(=O)c2cccc(Cl)c2)c1`, the AC50 was > 26 µM (inactive).
Next, `O=C(NCc1cccnc1)C(=O)Nc1nc(C23CC4CC(CC(C4)C2)C3)cs1`: > 26 µM (inactive); `Cc1cc(C(=O)NC2CCCc3c2cnn3-c2ccc(C)c(C)c2)n(C)n1` (configuration not stated): > 26 µM (inactive); `Fc1cc(F)c2nc(Nc3nc4c(F)cccc4s3)sc2c1`: > 26 µM (inactive).
Next, `O=C(Nc1cccnc1)c1cccs1`: > 26 µM (inactive); `CCN(CC)c1ccc(/C=N/NC(=O)c2ccco2)c(O)c1`: > 26 µM (inactive); `CCCN(CCC)C(=O)c1cc([N+](=O)[O-])cc2c1-c1ccc([N+](=O)[O-])cc1C2=C(C#N)C#N`: > 26 µM (inactive).
Take `CC(Nc1ncnc2ccccc12)c1ccccc1` (configuration not stated): the AC50 was > 26 µM (inactive).
Next, `CC(=O)SC1CC(=O)N(c2c(C)cccc2C)C1=O` (configuration not stated): > 26 µM (inactive); `O=C(OCn1ncc(Cl)c(Cl)c1=O)c1ccc(F)cc1`: > 26 µM (inactive).
Next, `Clc1ccc(C(Cn2ccnc2)OCc2csc3c(Cl)cccc23)c(Cl)c1` (configuration not stated): > 26 µM (inactive); `C#CCOCCOCCOCCNc1nc(N2CCN(C(=O)CCCCCCCCCCNC(=O)[C@H](CCCCN)n3cc(C)nn3)CC2)nc(N2CCN(C(=O)CCCCCCCCCCNC(=O)[C@H](CCCN=C(N)N)n3cc(C[C@@H](C)CC)nn3)CC2)n1`: > 26 µM (inactive); `CN1CCN(c2ccc([N+](=O)[O-])c3no[n+]([O-])c23)CC1`: > 26 µM (inactive).
Next, `Cc1cccc(CSC(Nc2ccc(F)cc2)=C(C#N)C#N)c1`: > 26 µM (inactive); `Cn1cccc1/C=N/NC(=O)Cc1cccs1`: > 26 µM (inactive); `CCN1CCN(Cc2ccc(NC(=O)c3ccc(C)c(NC(=O)c4c[nH]c5cc(C(F)(F)F)ccc5c4=O)c3)cc2C(F)(F)F)CC1`: > 26 µM (inactive).
Take `CC(C)CNC(=O)COC(=O)c1c2c(nc3ccccc13)/C(=C/c1cccs1)CC2`: the AC50 was > 26 µM (inactive).
For `CC(C)(C)c1ccc(OCc2ccc(C(=O)N/N=C/c3ccc(O)c(O)c3)cc2)cc1` the value was > 26 µM (inactive); for `CCCCNc1c(-c2cccc(-c3ccc(OC)cc3)c2)nc2ccc(C)cn12`, > 26 µM (inactive); for `O=C(NNC(=O)c1cccnc1SCc1cccc([N+](=O)[O-])c1)c1ccc(F)cc1`, > 26 µM (inactive).
For `CCOC(=O)c1sc(SC)c2c1CCC/C2=N/OC` the value was > 26 µM (inactive); for `COC(=O)c1cc(C)nc2c1C(=O)C(=O)C=C2N1CCOCC1`, > 26 µM (inactive); for `C/C(=N/NC(=O)c1cccs1)c1c(C)[nH]n(-c2nc3ccccc3s2)c1=O`, > 26 µM (inactive).
Next, `Cc1ccc2c(c1)c(/C=C/c1cc[n+](C)cc1)c(C)n2C`: > 26 µM (inactive); `N=c1c2c(n(Cc3ccc(Cl)c(Cl)c3)c3c1CCC3)CCCC2`: > 26 µM (inactive); `CC(=O)NC(C)c1cc(Cl)c2cccnc2c1O` (configuration not stated): > 26 µM (inactive).
`COc1ccccc1N1CCN(Cc2ccc(O)c3ncccc23)CC1`: the AC50 is > 26 µM (inactive).
For the compound `Cc1ccccc1OCc1n(CC(=O)OC2CC(C)CCC2C(C)C)c2ccccc2[n+]1C` (configuration not stated), the AC50 is > 26 µM (inactive).
For `COc1ccc2c(c1)c(/C=N/Nc1nc3ccccc3[nH]1)c(C)n2C` the value was > 26 µM (inactive); for `COc1ccc(C2/C=C\CN(C(=O)c3ccc(C)cc3)[C@H](Cc3ccccc3)C(=O)N2Cc2ccc(F)cc2)cc1` (some centres not stated), > 26 µM (inactive).
For `CCCOc1ccc(/C=N/NC(=S)Nc2ccccc2[N+](=O)[O-])c(O)c1` the value was > 26 µM (inactive); for `CC(=O)OC1COC(OC2C(O)C(C)OC(OC3C(OC4CCC5(C)C(CCC6(C)C5CC=C5C7CC(C)(C)CCC7(C(=O)O)CCC56C)C4(C)CO)OCC(O)C3O)C2O)C(O)C1OC(C)=O` (configuration not stated), > 26 µM (inactive).
Regarding `O=C(N/N=C/c1cc(Br)c(Br)s1)c1ccncc1`, the AC50 was > 26 µM (inactive).
Next, `O=C(CC1CC2CCC1C2)NCCc1ccc(Cl)cc1` (configuration not stated): > 26 µM (inactive); `CC1CCC(C(C)C)C(OC(=O)Cn2c(COc3ccccc3)[n+](C)c3ccccc32)C1` (configuration not stated): > 26 µM (inactive); `COc1cccc(N2CCN(c3ncnc4c3[nH]c3ccc(F)cc34)CC2C)c1` (configuration not stated): > 26 µM (inactive).
For `COc1ccc(Br)cc1CN1CCN(Cc2c[nH]c3ccccc23)CC1` the value was > 26 µM (inactive); for `O=C(N/N=C/c1ccc(O)c2ncccc12)c1cccc(Br)c1`, > 26 µM (inactive); for `CCCCCc1cc(=O)oc2c(C(CCN3CCCC(C)C3)c3ccc(OC)cc3)c(OC)cc(OC)c12` (configuration not stated), > 26 µM (inactive).
For `O=C(N/N=C/c1cc([N+](=O)[O-])ccc1O)c1cccc2ccccc12` the value was > 26 µM (inactive); for `Cc1ccc2c(C)ccc(O)c2n1`, > 26 µM (inactive); for `CCN(CC)S(=O)(=O)c1ccc(Cl)c(C(=O)Nc2ccc(Cl)cc2[N+](=O)[O-])c1`, > 26 µM (inactive).
